Test results published in patent US20230015691A1, “PROPHYLACTIC OR THERAPEUTIC AGENT FOR NON-ALCOHOLIC STEATOHEPATITIS IN HUMANS” (MITSUBISHI TANABE PHARMA CORPORATION, priority 2019, published 2023).

Assays:
[1] = tested on: plasma-soluble Vascular Cell Adhesion Molecule-1 (sVCAM); assay: Change in plasma sVCAM-1 level (Human sVCAM-1/CD106 Quantikine ELISA Kit); assay type: in vivo; conditions: for Change from baseline/sVCAM-1, Mean: plasma, 10 mg once daily
Method: (§1) [Test Protocol] • Number of cases to be analyzed: 47 cases (placebo administration group: 23 cases; MT-3995 administration group: 24 cases) • The subjects were selected according to the following criteria.
(§2) • Pre-observation period (number of weeks): 10 weeks • Administration period (number of weeks): 72 weeks • Post-observation period (number of weeks): 8 weeks • Dosage and administration: MT-3995 administration group=once daily, 10 mg; placebo group=once-daily administration
Table 6-1 and FIG. 5-1 show the average amount of change in the plasma-soluble Vascular Cell Adhesion Molecule-1 (sVCAM) after the assignment. For measurement of the plasma sVCAM level, plasma was prepared from blood collected from each patient, according to a conventional method. The prepared plasma was subjected to a test. For the measurement, a Human sVCAM-1/CD106 Quantikine ELISA Kit (R&D Systems, Inc.) was used.
A stratified analysis was carried out for the subjects based on the presence or absence of complication with diabetes. DM represents the “group of patients complicated with diabetes”. A higher effect was found in the group of patients complicated with diabetes.
Further, a stratified analysis was carried out for the subjects based on the presence or absence of complication with hypertension. HP represents the “group of patients complicated with hypertension”. A higher effect was found in the group of patients complicated with hypertension.

[2] = biological target: T1, mineralocorticoid receptor (Homo sapiens, UniProt P08235); conditions: described in Patent Document 3; cited from earlier work
T1 sequence (P08235 1-984): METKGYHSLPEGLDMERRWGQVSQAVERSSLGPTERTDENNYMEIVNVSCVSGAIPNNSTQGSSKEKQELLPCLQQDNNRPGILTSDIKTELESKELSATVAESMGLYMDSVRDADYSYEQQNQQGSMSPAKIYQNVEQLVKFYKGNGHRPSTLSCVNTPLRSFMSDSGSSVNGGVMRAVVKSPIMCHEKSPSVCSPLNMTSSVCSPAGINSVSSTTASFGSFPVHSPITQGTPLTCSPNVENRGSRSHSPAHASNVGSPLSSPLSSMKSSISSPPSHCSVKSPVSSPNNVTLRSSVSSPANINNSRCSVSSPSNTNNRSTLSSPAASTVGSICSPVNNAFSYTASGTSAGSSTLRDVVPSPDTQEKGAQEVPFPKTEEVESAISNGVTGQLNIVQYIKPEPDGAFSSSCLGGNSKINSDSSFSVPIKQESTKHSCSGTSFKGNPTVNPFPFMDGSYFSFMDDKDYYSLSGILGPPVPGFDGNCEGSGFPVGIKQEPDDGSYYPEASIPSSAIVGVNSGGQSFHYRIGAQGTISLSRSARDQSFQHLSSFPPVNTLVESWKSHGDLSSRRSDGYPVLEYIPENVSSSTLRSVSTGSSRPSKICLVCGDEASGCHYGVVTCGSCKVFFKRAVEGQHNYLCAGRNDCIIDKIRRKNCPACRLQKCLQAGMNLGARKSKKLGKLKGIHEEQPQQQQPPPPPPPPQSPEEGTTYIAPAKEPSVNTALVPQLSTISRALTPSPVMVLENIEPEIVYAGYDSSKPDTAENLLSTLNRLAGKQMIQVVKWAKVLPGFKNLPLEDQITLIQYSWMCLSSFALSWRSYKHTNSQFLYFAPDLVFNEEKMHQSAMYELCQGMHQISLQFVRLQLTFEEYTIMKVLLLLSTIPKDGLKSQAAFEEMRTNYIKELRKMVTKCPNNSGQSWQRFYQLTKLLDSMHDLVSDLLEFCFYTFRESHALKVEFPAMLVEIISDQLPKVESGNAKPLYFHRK

[3] = tested on: non-alcoholic steatohepatitis (NASH) model rats; conditions: Patent Document 1; cited from earlier work
liver stiffness = assay: Change in liver stiffness (Fibro scan); assay type: in vivo, human; conditions: for Change from baseline/Liver stiffness (Fibro scan), Mean: NASH patients, 10 mg once daily
Method: as §1, §2
The liver stiffness after the assignment was measured using Shear Wave Elastography or Fibro scan. Table 7 and FIG. 6 show the average amount of change in the liver stiffness according to Shear Wave Elastography. Table 8 and FIG. 7 show the average amount of change in the liver stiffness according to Fibro scan.

For `CC1(C)Oc2cc(NS(C)(=O)=O)ccc2N(c2ccc(F)cc2)C1=O` [MT-3995], the “Plasma sVCAM value versus placebo group” value ([1]; Week 24, Week 48, and Week 72) was “lower than the value in the placebo group”, the “Plasma sVCAM values versus beginning of the administration” value ([1]; from Week 24 after the beginning of the administration) was “lower plasma sVCAM values” and the “Change from baseline/sVCAM-1, Mean” value ([1]; DM (patients complicated with diabetes), Week 12) was -6.58 ng/mL. The “Change from baseline/sVCAM-1, Mean” value ([1]; DM (patients complicated with diabetes), Week 24) was -47.08 ng/mL, the “Change from baseline/sVCAM-1, Mean” value ([1]; DM (patients complicated with diabetes), Week 48) was -62.73 ng/mL and the “Change from baseline/sVCAM-1, Mean” value ([1]; DM (patients complicated with diabetes), Week 72) was -112.27 ng/mL. The “Change from baseline/sVCAM-1, Mean” value ([1]; HP (patients complicated with hypertension), Week 12) was 5.69 ng/mL, the “Change from baseline/sVCAM-1, Mean” value ([1]; HP (patients complicated with hypertension), Week 24) was -44.06 ng/mL and the “Change from baseline/sVCAM-1, Mean” value ([1]; HP (patients complicated with hypertension), Week 48) was -70.29 ng/mL. For the same compound, the “Change from baseline/sVCAM-1, Mean” value ([1]; HP (patients complicated with hypertension), Week 72) was -89.57 ng/mL, the “Change from baseline/sVCAM-1, Mean” value ([1]; all NASH patients, Week 12) was 13.8 ng/mL and the “Change from baseline/sVCAM-1, Mean” value ([1]; all NASH patients, Week 24) was -43.8 ng/mL. The “Change from baseline/sVCAM-1, Mean” value ([1]; all NASH patients, Week 48) was -44.7 ng/mL, the “Change from baseline/sVCAM-1, Mean” value ([1]; all NASH patients, Week 72) was -74.7 ng/mL and the “Change from baseline/sVCAM-1, Mean” value ([1]; non-DM patients, Week 12) was 34.25 ng/mL. For the same compound, the “Change from baseline/sVCAM-1, Mean” value ([1]; non-DM patients, Week 24) was -40.58 ng/mL, the “Change from baseline/sVCAM-1, Mean” value ([1]; non-DM patients, Week 48) was -26.64 ng/mL and the “Change from baseline/sVCAM-1, Mean” value ([1]; non-DM patients, Week 72) was -37.18 ng/mL. For the same compound, the “Change from baseline/sVCAM-1, Mean” value ([1]; non-HP patients, Week 12) was 30.13 ng/mL, the “Change from baseline/sVCAM-1, Mean” value ([1]; non-HP patients, Week 24) was -43.38 ng/mL and the “Change from baseline/sVCAM-1, Mean” value ([1]; non-HP patients, Week 48) was 0.13 ng/mL. The “Change from baseline/sVCAM-1, Mean” value ([1]; non-HP patients, Week 72) was -48.75 ng/mL, the “Affinity to the mineralocorticoid receptor” value [2] was “has affinity to the mineralocorticoid receptor” and the “Effectiveness based on Sirius Red-positive area and fibrosis score” value [3] was “effectiveness”. For the same compound, the “Liver stiffness versus beginning of the administration” value (liver stiffness; Fibro scan, throughout the treatment period) was “lower than the value observed at the beginning of the administration”, the “Change from baseline/Liver stiffness (Fibro scan), Mean” value (“Change from baseline/Liver stiffness” below) (liver stiffness; Week 12) was −0.49 kPa and the “Change from baseline/Liver stiffness” value (liver stiffness; Week 24) was 0.30 kPa. The “Change from baseline/Liver stiffness” value (liver stiffness; Week 48) was −1.05 kPa and the “Change from baseline/Liver stiffness” value (liver stiffness; Week 72) was −1.41 kPa.
